The values below come from patent US20260028374A1, “EPIDERMAL GROWTH FACTOR RECEPTOR INHIBITORS” (FILAMON LTD, priority 2023, published 2026).

Test [1] addresses T1, EGF-EGFR interaction (Homo sapiens, UniProt P00533).
T1 construct: purchased Perkin-Elmer
Kind of test: EGF-EGFR AlphaLISA assay. The class given is binding. The note with it: in vitro AlphaLISA; for inhibition of the EGF/EGFR interaction: 0.01-200 μM. The protocol:
FIG. 2. […] Representation of the molecules are as described in FIG. 1.
The AlphaLISA EGF/EGFR binding kit (Perkin-Elmer) was used as per the manufacturer's instructions. […] Finally, 5 μL of EGFR acceptor beads were added, and fluorescence imaged on a plate reader.
For orientation: Bead proximity is the source of the signal in Alpha formats.

Test [2] has as its target T2, EGFR (Homo sapiens, UniProt P00533). The experiment in a line: Western blot of EGFR in PC-3 cells. The class given is cell-based. The following applies: PC-3, 100 μM, time course 3, 16, 24 and 48 hours. On the procedure: (§1) FIG. 3. (a) PC-3 cells treated with DMSO (0.5%), FLM-c2 (100 μM), D1-D3 (100 μM) or EGF (50 ng/mL) for 24 h, detected for EGFR and GAPDH. (b) PC-3 cells tagged with EGFR-EGFP and lysotracker treated with DMSO (0.5%) or D3 (100 μM) for 24 h.
FIG. 4. (a) PC-3 cells were treated with D1-D3 (100 μM) for 3, 16, 24 and 48 hours. EGFR and ß-Actin ratio was detected. (b) the EGFR:ß-Actin ratio was plotted after normalising to DMSO control.
PC-3 cells were seeded in a 6 well plate at 200,000 cells/well overnight at 37° C. and 5% C02. Media was removed, cells were washed with PBS and serum free media added 1 hour before treatment with FLM-c2, D1-D3 for 3-48 hours. After treatment, media was removed and cells were washed with ice cold PBS. PBS was removed and cells were scraped into 1 mL of PBS containing 5.3 mM of EDTA and centrifuged at 2500 g for 2 min. PBS was removed and cells were lysed with lysis buffer (PBS, 0.1% NP-40, 0.1% sodium deoxycholate, 150 mM NaCl, 1 mM EDTA, 1 mM dithiothreitol, 1 mM phenylmethylsulfonyl fluoride, and IX protease inhibitor cocktail)^17 and mixed with RM-2L Intelli-mixer for 30 min at 4° C. Lysates were then centrifuged at 12,000 g for 20 min at 4° C. 20 μg of lysate was added to 4 μL of Bolt reducing agent and 10 μL of reducing buffer (both reagents supplied by Thermo Fisher Scientific) for a final volume of 40 μL with PBS. Samples were boiled and run on a gel, transferred to a membrane and blocked for 1 hour in 5% skim milk at 25° C. Membrane was probed with either EGFR antibody #2232, GAPDH antibody #2118 or BS-Actin antibody #4970 (Cell Signalling) at 1:1000 in 5% skim milk/TBST overnight at 4° C. Each membrane was washed three times with 50 mL TBST for 5 mins and then incubated with the relevant secondary α-rabbit IgG-HRP-linked antibody (1:1000), for 1 hour at room temperature. The membrane was washed as described above and imaged with the Licor Odyssey.
Background: Immunoblotting shows a protein as a band on a membrane.

Test [3] has as its target T2, EGFR. Kind of test: EGFR and lysotracker staining in A549 cells. Also on record: endogenous in cells; host or cells: A549. The following applies: A549, 16 hours. The class given is cell-based. The protocol:
FIG. 5: (a) A549 cells were treated with DMSO (0.5%), EGF (50 ng/mL), or D1-D3 (1-100 μM) for 16 hours, before staining with lysotracker (red), fixing and staining with EGFR antibody (green). (b) EGFR signal, (c) EGFR membrane signal, (d) lysotracker signal and (e) EGFR speckle lysotracker signal (bars SEM) were quantified (n=3, >20 cells per replicate). Scale bars 20 μm.
To investigate the mechanism of how LYTAPS cause EGFR degradation, LYTAPs D1-D3 (1-100 μM) were incubated on A549 cells for 16 hours, with DMSO (0.5%) and high EGF (50 ng/mL) used as controls. Cells were then stained with Lysotracker, fixed and stained with EGFR-antibody. Under DMSO control, the majority of EGFR signal is present at the membrane (FIG. 5a).

Test [4] deals with H3255. The note with it: H3255, EGFR - L858R, cited from earlier work.
For test [5], the system named is H1975. The following applies: H1975, EGFR- L858R/T790M, cited from earlier work.
Test [6] concerns pERK. Kind of test: pERK immunofluorescence in A549 cells after EGF stimulation. The note with it: A549, 100 μM for 16 hours, then EGF 10 ng/mL. Format: cell-based. The protocol: FIG. 6: A549 cells were treated with DMSO or D1-D3 (10-100 μM) for 16 hours before incubation with EGF (10 ng/mL) for 30 minutes, before cells were fixed and stained for pERK (green). Scale bars 20 μm, n=3, >20 cells per replicate.
To examine whether LYTAPs can inhibit EGFR downstream signalling, A549 cells were pre-incubated with 10-100 μM of D1-D3 for 16 hours, before stimulation with EGF (10 ng/mL) for […]. Cells were then fixed and immunofluorescently stained for pERK.

Test [7] deals with NSCLC cell lines H3255 and H1975. Kind of test: Combination cell viability in NSCLC cell lines. Format: cell-based. The note with it: H3255 and H1975, 72 hours.
In test [8] the test system is SW48 and SW48G12V. Kind of test: Combination cell viability in isogenic CRC cell lines. The class given is cell-based. The note with it: D1 0.001-100 μM with cetuximab 0.02-30 μg/mL, 72 hours.
The subject of test [9] is CRC and NSCLC cancer cell lines. The experiment in a line: Proliferation assays in CRC and NSCLC cancer cell lines.
In test [10] the target is T2, EGFR. Kind of test: Live cell imaging, EGFR-EGFP and lysotracker in PC-3 cells. The class given is cell-based. The note with it: PC-3, EGFR-EGFP and lysotracker, 100 μM, 24 hours. The protocol:
as §1
PC-3 cells were seeded in a 24 well glass-bottom plate at 50 000 cells/well and incubated overnight at 37° C. and 5% CO2. Complete media was removed, wells washed with 500 μL of warm PBS for 1 min then removed and 500 μL serum free medium was added and left to incubate for one hour at 37° C. and 5% CO2. Cells were co-transfected with plasmids encoding fusion protein EGFR-EGFP (Addgene plasmid #32751, a gift from Alexander Sorkin) using Lipofectamine 3000 (Thermo Fisher Scientific) as per the manufacturer's instructions. Cells were incubated for 48 hours at 37° C. and 5% CO2, after which transfection efficiency was determined through observation of EGFP and signal with a confocal microscope LSM 800 (Zeiss). LysoTracker far red (Thermo Fisher Scientific) was incubated at 1 μM for 37° C. and 5% CO2. Cells were washed three times with PBS and serum free media was added to cells, Either DMSO (0.5%) or D3 (100 μM) were added overnight at 37° C. and 5% CO2 before imaging on the confocal microscope LSM 800 (Zeiss).

Test [11] concerns EGFR, Rab5 and hGIIA localisation. Kind of test: Live cell imaging of EGFR, Rab5 and hGIIA localisation in PC-3 cells. Format: cell-based. The note with it: PC-3, Lapatinib 5 μM, control for EGFR inhibition.
Experimental: (e) PC-3 cells co-transfected with Rab5-mCherry (red), EGFR-GFP (green) and treated with hGIIA/AF647 (purple) as well as c2 at 1 μM and 10 μM for 24 hours. EGF (25 ng/mL) and Lapatinib (5 μM) were used as control treatments. N=3, >5 cells per replicate.
The effect of c2 on EGFR, Rab5 and hGIIA localisation was also examined in PC-3 cells. PC-3 cells were co-transfected with EGFR-EGFP and Rab5-mCherry before treatment with hGIIA/AF647 and c2 at 0, 1 and 10 μM.
[12] abbreviates: read-out: Resistance (value in brackets).

The structures appear in SMILES notation. Square brackets hold non-standard residues; d marks the D form. Peptide text beside a SMILES is read from it. 2Nal = N[C@@H](Cc1ccc2ccccc2c1)C(=O)O; d1Nal = N[C@H](Cc1cccc2ccccc12)C(=O)O

T1 sequence (P00533 25-645 limits assumed): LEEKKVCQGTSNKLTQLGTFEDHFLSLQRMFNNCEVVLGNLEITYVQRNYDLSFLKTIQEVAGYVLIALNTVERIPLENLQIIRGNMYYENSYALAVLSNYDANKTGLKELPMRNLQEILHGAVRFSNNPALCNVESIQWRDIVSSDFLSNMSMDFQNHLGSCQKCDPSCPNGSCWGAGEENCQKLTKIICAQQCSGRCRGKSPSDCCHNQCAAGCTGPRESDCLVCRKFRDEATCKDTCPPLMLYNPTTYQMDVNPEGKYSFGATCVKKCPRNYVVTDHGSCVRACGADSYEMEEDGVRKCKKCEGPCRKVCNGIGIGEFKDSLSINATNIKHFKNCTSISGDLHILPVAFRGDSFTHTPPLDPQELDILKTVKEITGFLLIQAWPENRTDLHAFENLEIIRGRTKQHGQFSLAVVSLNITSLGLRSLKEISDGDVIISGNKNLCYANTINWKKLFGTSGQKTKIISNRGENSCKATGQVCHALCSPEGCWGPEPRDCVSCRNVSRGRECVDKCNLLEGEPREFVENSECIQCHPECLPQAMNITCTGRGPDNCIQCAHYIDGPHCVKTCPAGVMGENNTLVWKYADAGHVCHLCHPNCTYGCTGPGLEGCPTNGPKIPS
T2 sequence (P00533 25-1210): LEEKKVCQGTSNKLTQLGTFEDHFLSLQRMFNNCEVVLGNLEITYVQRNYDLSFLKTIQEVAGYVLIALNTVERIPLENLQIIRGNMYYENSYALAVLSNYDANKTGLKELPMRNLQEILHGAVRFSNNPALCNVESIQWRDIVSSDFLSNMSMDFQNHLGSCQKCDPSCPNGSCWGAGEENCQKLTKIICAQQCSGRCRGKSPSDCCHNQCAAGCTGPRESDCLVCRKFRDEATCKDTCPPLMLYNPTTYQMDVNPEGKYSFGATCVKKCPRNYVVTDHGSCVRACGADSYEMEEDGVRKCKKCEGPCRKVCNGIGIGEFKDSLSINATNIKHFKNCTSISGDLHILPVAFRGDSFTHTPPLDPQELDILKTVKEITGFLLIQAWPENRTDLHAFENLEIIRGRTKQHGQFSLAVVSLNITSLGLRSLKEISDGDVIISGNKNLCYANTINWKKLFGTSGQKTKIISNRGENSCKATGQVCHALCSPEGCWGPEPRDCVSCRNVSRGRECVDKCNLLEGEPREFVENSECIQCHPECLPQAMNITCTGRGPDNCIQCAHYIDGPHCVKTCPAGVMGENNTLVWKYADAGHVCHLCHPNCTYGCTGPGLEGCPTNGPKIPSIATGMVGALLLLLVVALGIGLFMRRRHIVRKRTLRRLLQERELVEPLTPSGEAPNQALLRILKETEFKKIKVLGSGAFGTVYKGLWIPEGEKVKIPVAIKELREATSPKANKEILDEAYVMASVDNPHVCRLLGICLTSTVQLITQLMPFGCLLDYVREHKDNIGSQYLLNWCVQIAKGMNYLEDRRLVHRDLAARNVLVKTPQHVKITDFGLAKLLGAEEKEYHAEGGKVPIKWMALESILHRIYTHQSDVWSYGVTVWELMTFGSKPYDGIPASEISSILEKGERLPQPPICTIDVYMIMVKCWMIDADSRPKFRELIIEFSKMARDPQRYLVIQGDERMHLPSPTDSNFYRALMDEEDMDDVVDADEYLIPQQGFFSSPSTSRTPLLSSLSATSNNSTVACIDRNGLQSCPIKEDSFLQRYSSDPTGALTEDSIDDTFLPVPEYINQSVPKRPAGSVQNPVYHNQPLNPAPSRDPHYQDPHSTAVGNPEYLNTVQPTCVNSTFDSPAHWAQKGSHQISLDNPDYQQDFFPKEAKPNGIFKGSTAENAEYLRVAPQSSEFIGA

For the molecule `CC(C)C[C@@H]1NC(=O)[C@@H](Cc2ccccc2)NC(=O)[C@H](CCCNC(=N)N)NC(=O)[C@H](Cc2ccc3ccccc3c2)NC(=O)[C@H](CO)NC1=O` [Compound D2, cyclo[(D-Phe)-Leu-Ser-(L-2Nal)-Arg]] (cyclo([2Nal]R[dF]LS)), in test [1], the “potency order in inhibiting the EGF/EGFR interaction” value is reported as “FLM-c2>D1>D2>D3” and the “inhibition of the EGF/EGFR interaction” value is reported as “inhibited the EGF/EGFR interaction at high concentrations”. In addition, the “recovery of EGFR levels” value in test [2] was “returned to normal by 24 and 48 hours”. For the same molecule, the “lysotracker signal of endocytosed EGFR speckles” value in test [3] (1 μM) is on record as “significantly increased lysotracker signal”. Further, in [3] (1 μM, vs DMSO), the EGFR signal result is listed as “significant reduction in EGFR signal”. For the same molecule, in test [3] (100 μM), the lysotracker signal entry is given as “increased lysotracker signal”.

For the molecule `C#Cc1cccc(Nc2ncnc3cc(OCCOC)c(OCCOC)cc23)c1` [erlotinib], the values for the Resistance result in [4] and in [5] were “Erlotinib sensitive” and “Erlotinib resistant”, respectively. The IC50 in test [4] (setting [12]) is 40 nM; in [5] (setting [12]), 4300 nM.

As for `CC(C)C[C@@H]1NC(=O)[C@@H](Cc2cccc3ccccc23)NC(=O)[C@H](CCCNC(=N)N)NC(=O)[C@H](Cc2ccc3ccccc3c2)NC(=O)[C@H](CO)NC1=O` [Compound D1, cyclo[(D-1Nal)-Leu-Ser-(L-2Nal)-Arg]] (cyclo([2Nal]R[d1Nal]LS)), in test [1], the “potency order in inhibiting the EGF/EGFR interaction” value is listed as “FLM-c2>D1>D2>D3” and the “inhibition of the EGF/EGFR interaction” value is reported as “inhibited the EGF/EGFR interaction at high concentrations”. In addition, the “recovery of EGFR levels” value in test [2] was “returned to normal by 24 and 48 hours”. In test [6], the “pERK signal, comparison among LYTAPs” value is on record as “largest effect”. Further, in [7], the synergy with cetuximab entry was “potent synergy”; the “synergy with cetuximab, U0126 and chloroquine” value was “exhibited synergy with all three”. For the same molecule, the synergy with cetuximab result in test [8] is reported as “significant synergy”. Besides, in test [3] (1 μM), the “lysotracker signal of endocytosed EGFR speckles” value is reported as “significantly increased lysotracker signal”. Also, in test [3] (1 μM, vs DMSO), the EGFR signal result is given as “significant reduction in EGFR signal”. Besides, in test [3] (100 μM), the lysotracker signal entry is recorded as “increased lysotracker signal” and the “lysotracker signal of endocytosed EGFR speckles” value is reported as “significantly increased lysotracker signal”. Further, the “fraction of membrane-localised EGFR signal” value in test [3] (100 μM, vs DMSO) is “significantly reduced”. For the same molecule, the “IC50 compared with c2, D2 and D3” value in test [9] (H3255, HCC827, H1975, HCT116, SW48, SW48G12V, HT29, RKO, 0.01-300 μM, 72 hours) is given as “lowest IC50 in all cell lines”. Moreover, the “efficacy in NSCLC cell lines sensitive and resistant to erlotinib” value in [9] (HCC827, H1975 and H3255) was “retained efficacy”. Besides, the “efficacy in cetuximab sensitive and resistant cell lines” value in [9] (SW48 vs SW48G12V, HT29, HCT116 and RKO) is “comparable efficacy”.

With `CC(C)C[C@@H]1NC(=O)[C@@H](Cc2ccccc2)NC(=O)[C@H](CCCNC(=N)N)NC(=O)[C@H](Cc2ccccc2)NC(=O)[C@H](CO)NC1=O` [Compound D3, cyclo[(D-Phe)-Leu-Ser-(L-Phe)-Arg)]] (cyclo(FR[dF]LS)), in test [1], the “potency order in inhibiting the EGF/EGFR interaction” value is given as “FLM-c2>D1>D2>D3” and the “inhibition of the EGF/EGFR interaction” value is on record as “inhibited the EGF/EGFR interaction at high concentrations”. Moreover, the “colocalization of EGFR with lysosomes” value in test [10] is on record as “confirmed colocalization of EGFR with lysosomes”. Further, the EGFR signal result in test [3] (1 μM, vs DMSO) was “significant reduction in EGFR signal”. In addition, the “lysotracker signal of endocytosed EGFR speckles” value in test [3] (100 μM) is listed as “significantly increased lysotracker signal”.

Regarding `CS(=O)(=O)CCNCc1ccc(-c2ccc3ncnc(Nc4ccc(OCc5cccc(F)c5)c(Cl)c4)c3c2)o1` [Lapatinib], in test [11], the “effect on EGFR, Rab5 and hGIIA localisation” value is “altering the localisation of hGIIA and Rab5 to become less punctate and more cytosolic”.
